Source: PubChem BioAssay AID1963952 (Xavier Lab, Infectious Disease and Microbiome Program, …, 2024)
Active and inactive are the calls of the source. No rule for the calls is given here.

Target: Peptidyl-prolyl cis-trans isomerase FKBP1A (Homo sapiens) (UniProt P62942)
Assay: ligand binding to FKBP1A protein – biochemical, TR-FRET, dose response (AID 1963952)
Details: FKBP12 binding

Sequence of Peptidyl-prolyl cis-trans isomerase FKBP1A (Homo sapiens) (P62942 whole entry, looked up): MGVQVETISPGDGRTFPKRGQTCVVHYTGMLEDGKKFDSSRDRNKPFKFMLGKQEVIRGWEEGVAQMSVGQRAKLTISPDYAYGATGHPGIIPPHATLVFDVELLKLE

SMILES	EC50	outcome
CCC(C)(C)C(=O)C(=O)N1CCCC[C@H]1C(=O)N[C@H](CCc1ccc(OC)cc1)C(=O)N1CC(Nc2nc(NCCc3sc(N)nc3C)nc(NCCn3cnc4ccccc43)n2)C1	35 µM	
CCC(C)(C)C(=O)C(=O)N1CCCC[C@H]1C(=O)N[C@H](CCc1ccc(OC)cc1)C(=O)N1[C@@H]2CC[C@H]1CC(Nc1nc(NCCc3sc(N)nc3C)nc(NCCn3cnc4ccccc43)n1)C2 (stereo not given in full)	18.4 µM	
CC(=O)N1[C@@H]2CC[C@H]1CC(Nc1nc(NCCc3sc(N)nc3C)nc(N3CCn4ncnc4C3)n1)C2 (stereo not given in full)		inactive
CCC(C)(C)C(=O)C(=O)N1CCCC[C@H]1C(=O)N[C@H](CCc1ccc(OC)cc1)C(=O)N1[C@@H]2CC[C@H]1CC(NC(C)=O)C2 (stereo not given in full)	28.9 µM	
CCC(C)(C)C(=O)C(=O)N1CCCC[C@H]1C(=O)N[C@H](CCc1ccc(OC)cc1)C(=O)N1[C@@H]2CC[C@H]1CC(Nc1nc(NCCc3sc(N)nc3C)nc(NCc3ccnc(CO)c3)n1)C2 (stereo not given in full)	36.8 µM	
CCC(C)(C)C(=O)C(=O)N1CCCC[C@H]1C(=O)N[C@H](CCc1ccc(OC)cc1)C(=O)N1[C@@H]2CC[C@H]1CC(Nc1nc(NCCc3sc(N)nc3C)nc(N3CCn4ncnc4C3)n1)C2 (stereo not given in full)	29.5 µM	
CCC(C)(C)C(=O)C(=O)N1CCCC[C@H]1C(=O)N[C@H](CCc1ccc(OC)cc1)C(=O)N1[C@@H]2CC[C@H]1CC(Nc1nc(NCCc3sc(N)nc3C)nc(N(C)Cc3nnc4n3CCC4)n1)C2 (stereo not given in full)	17.9 µM	

The remaining lines, values ahead:

EC50	outcome	SMILES
36 µM		CCC(C)(C)C(=O)C(=O)N1CCCC[C@H]1C(=O)N[C@H](CCc1ccc(OC)cc1)C(=O)N1[C@@H]2CC[C@H]1CC(Nc1nc(NCCc3ccccc3)nc(N3CCn4ncnc4C3)n1)C2 (stereo not given in full)
17.1 µM		CCC(C)(C)C(=O)C(=O)N1CCCC[C@H]1C(=O)O[C@H](CCc1ccccc1)C(=O)N1[C@@H]2CC[C@H]1CC(Nc1nc(NCCc3sc(N)nc3C)nc(N3CCn4ncnc4C3)n1)C2 (stereo not given in full)
13.3 µM		CCC(C)(C)C(=O)C(=O)N1CCCC[C@H]1C(=O)N[C@H](CCc1ccc(OC)cc1)C(=O)N1CC[C@H](Nc2nc(NCCc3sc(N)nc3C)nc(N(C)Cc3nnc4n3CCC4)n2)C1
